# Literature values in patent US20190321435A1, “ACORUS GRAMINEUS AS A PHARMACOLOGICALLY ACTIVE NATURAL TREATMENT IN THE ADDICTION OF NICOTINE” (priority 2018, published 2019).
# Tests used:
# [1] = cited from earlier work
# [2] = test system: intravenous self-administration (IVSA) of nicotine; details: rodents; high-dose (Rauhut et al., 2003); cited from earlier work
Structure (SMILES),adverse effect of intravenous administration ([1]; administered intravenously),first-pass hepatic metabolism ([1]; oral administration (swallowing)),self-administration of nicotine [2]
CN1CCc2cccc3c2[C@H]1Cc1ccc(O)c(O)c1-3 [apomorphine],crystallization of the drug and lead to thrombus formation and pulmonary embolism,significant first-pass hepatic metabolism,
CC(NC(C)(C)C)C(=O)c1cccc(Cl)c1 (stereo not drawn) [bupropion],,,reduce self-administration of nicotine
